The values below come from PMC10733197, “Utilization of Rosuvastatin and Endogenous Biomarkers in Evaluating the Impact of Ritlecitinib on BCRP, OATP1B1, and OAT3 Transporter Activity” (Pharmaceutical Research, 2023).

Data set [1] in a line: Inhibitor exposure estimates and PK inputs for static drug interaction risk assessment. The settings on record: for Cmax,u: maximal free plasma concentration (Cmax × fu) at ritlecitinib 200 mg.
The target in a further data set is T1, OATP1B1 (Homo sapiens, UniProt Q9Y6L6).
T1 construct: expressed in transfected cells; host or cells: HEK293
T1 sequence (Q9Y6L6 1-691): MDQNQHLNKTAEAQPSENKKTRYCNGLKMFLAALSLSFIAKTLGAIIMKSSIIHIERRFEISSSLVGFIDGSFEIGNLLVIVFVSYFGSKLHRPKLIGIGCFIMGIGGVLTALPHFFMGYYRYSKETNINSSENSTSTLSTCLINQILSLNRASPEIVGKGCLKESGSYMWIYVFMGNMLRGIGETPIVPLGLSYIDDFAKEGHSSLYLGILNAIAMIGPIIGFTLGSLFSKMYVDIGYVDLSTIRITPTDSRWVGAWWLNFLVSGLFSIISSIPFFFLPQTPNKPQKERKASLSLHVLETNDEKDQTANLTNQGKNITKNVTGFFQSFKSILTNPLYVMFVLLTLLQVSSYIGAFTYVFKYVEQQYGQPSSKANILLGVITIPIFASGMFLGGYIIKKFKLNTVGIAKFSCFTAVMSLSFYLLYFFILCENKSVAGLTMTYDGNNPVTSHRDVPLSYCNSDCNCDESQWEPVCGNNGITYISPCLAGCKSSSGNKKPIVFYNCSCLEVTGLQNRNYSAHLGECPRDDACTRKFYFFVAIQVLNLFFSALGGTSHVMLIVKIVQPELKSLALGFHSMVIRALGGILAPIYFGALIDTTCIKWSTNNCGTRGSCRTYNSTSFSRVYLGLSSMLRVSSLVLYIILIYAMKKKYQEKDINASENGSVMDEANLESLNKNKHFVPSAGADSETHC
The data set can be described thus: OATP1B1-mediated rosuvastatin uptake inhibition in transfected HEK293 cells. The class given is cell-based. The settings on record: for IC50: hepatic OATP1B1, RSV 0.3–0.5 µM as substrate, 1—3 min, HEK293, mean ± SD, n = 3; for R-value: 1 + (Imax,inlet,u/IC50), cutoff 1.1 (FDA), 1.04 (EMA). On the procedure:
(§1) Sources of human embryonic kidney (HEK) 293 cells expressing individual transfected human solute carriers (SLC), test substrates, and cell culture reagents, as well as detailed cell culture methods, incubations, and sample processing, have been described previously. SLC included hepatic OATP1B1, OATP1B3, and renal OAT1 and OAT3. […] Likewise, the uptake of non-labeled rosuvastatin (Biosynth, San Diego, CA) at 0.3—0.5 µM was determined for OATP1B1 and OATP1B3 at 1—3 min, and CP-I (Frontier Specialty Chemicals, Logan, UT) at 0.1 µM was determined for OATP1B1 and OATP1B3 at 10 min [14].
(§2) In all cases, ritlecitinib (0.018 to 1000 µM) and metabolite M2 (0.018 to 300 µM) was tested over a wide range of final concentrations dissolved in dimethyl sulfoxide (the final concentration of dimethyl sulfoxide in the assays was 1% v/v). For each transporter, the IC50 was estimated using a four-parameter logistic equation (Eq. 1) using GraphPad Prism software (GraphPad Software Inc, La Jolla, CA).1 %UptakeActivity=Bottom+(Top-Bottom)/1+10^(LogIC50-inhib*HillSlope)
(§3) At the end of the uptake and inhibition experiment, cellular accumulation of ^3H-PAH and ^3H-E3S was determined using liquid scintillation counting as previously described. Rosuvastatin uptake was determined using a tandem high performance liquid chromatography (LC)-mass spectrometry (MS) assay.

The next data set deals with T2, OAT3 (Homo sapiens, UniProt Q8TCC7).
T2 construct: expressed in transfected cells; host or cells: HEK293
T2 sequence (Q8TCC7 1-542): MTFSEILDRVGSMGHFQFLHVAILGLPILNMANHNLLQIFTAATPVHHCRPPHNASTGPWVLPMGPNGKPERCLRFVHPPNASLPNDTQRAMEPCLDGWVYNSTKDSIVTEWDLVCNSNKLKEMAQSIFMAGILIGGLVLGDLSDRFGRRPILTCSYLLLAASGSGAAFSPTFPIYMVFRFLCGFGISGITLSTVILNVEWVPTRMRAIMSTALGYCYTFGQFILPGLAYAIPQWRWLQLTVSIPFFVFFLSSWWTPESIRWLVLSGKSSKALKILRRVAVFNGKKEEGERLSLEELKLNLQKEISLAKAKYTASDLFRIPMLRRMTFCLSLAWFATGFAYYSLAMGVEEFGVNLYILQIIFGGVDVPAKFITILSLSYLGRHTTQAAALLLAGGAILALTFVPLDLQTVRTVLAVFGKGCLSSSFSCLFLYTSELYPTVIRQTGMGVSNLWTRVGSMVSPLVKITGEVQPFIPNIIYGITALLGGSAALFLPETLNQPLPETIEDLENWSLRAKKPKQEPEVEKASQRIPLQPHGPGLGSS
Kind of data set: OAT3-mediated 3H-E3S uptake inhibition in transfected HEK293 cells. The class given is cell-based. The conditions noted are these: for Fraction Inhibited / Triggers Drug Interaction Cutoff / Cmax,u/IC50 ratio: OAT3; for Fraction Inhibited: Cmax,u/(Cmax,u + IC50) (Eq. 2); for Triggers Drug Interaction Cutoff: Cmax,u/IC50 cutoff 0.1 (FDA); for Triggers Drug Interaction Cutoff / Cmax,u/IC50 ratio: 0.02 (EMA); for Cmax,u/IC50 ratio: cutoff 0.1 (FDA), ritlecitinib 200 mg; for IC50: renal OAT3, E3S as substrate (0.1 µM per table footnote), 3 min, HEK293, mean ± SD, n = 3. On the procedure:
as §1, §2, §3
Assumes no substrate-dependent shift in IC50 versus PDA.^1 Each OAT form was singularly transfected in human embryonic kidney 293 cells.

Another data set has as its target T3, OATP1B3 (Homo sapiens, UniProt Q9NPD5).
T3 construct: expressed in transfected cells; host or cells: HEK293
T3 sequence (Q9NPD5 1-702): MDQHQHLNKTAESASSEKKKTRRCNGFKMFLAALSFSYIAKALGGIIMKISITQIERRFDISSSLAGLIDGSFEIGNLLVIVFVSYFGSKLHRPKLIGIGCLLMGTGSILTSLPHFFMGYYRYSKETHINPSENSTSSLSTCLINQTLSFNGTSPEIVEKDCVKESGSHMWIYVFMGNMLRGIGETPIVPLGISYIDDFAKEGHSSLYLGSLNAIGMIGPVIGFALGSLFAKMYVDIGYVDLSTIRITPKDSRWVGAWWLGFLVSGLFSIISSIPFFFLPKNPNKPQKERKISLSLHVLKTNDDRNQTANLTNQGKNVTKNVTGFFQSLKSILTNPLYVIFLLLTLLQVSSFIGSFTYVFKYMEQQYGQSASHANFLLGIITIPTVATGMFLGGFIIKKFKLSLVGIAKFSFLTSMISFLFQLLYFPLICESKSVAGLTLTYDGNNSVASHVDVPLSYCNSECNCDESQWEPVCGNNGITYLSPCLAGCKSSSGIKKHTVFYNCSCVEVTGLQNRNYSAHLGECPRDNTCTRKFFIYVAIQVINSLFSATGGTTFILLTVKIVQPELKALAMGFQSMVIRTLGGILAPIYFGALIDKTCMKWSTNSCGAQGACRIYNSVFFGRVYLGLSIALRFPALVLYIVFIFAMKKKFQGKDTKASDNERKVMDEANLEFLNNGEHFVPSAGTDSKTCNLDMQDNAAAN
Kind of data set: OATP1B3-mediated rosuvastatin uptake inhibition in transfected HEK293 cells. The settings on record: for IC50: hepatic OATP1B3, RSV 0.3–0.5 µM as substrate, 1—3 min, HEK293, mean ± SD, n = 3. The class given is cell-based. On the procedure: as §1, §2, §3

By IC50 is commonly meant the concentration needed to halve the response being measured. Lower therefore signals higher potency. One may read the % inhibition as the drop in the measured response relative to a control, in per cent. Low readings indicate a weak effect, high ones a strong effect.

Where “and” joins values, the source holds several entries; their conditions need not be identical. Equal entries are not always repeated. A value given as a limit tells only on which side of the number the result lay.

As for `C[C@H]1CC[C@@H](Nc2ncnc3[nH]ccc23)CN1C(=O)CCSC[C@H](N)C(=O)O` [M2], in data set [1], the “Cmax,u” value is 1.4 μM and 1.4^j μM. Also, the “Triggers Drug Interaction Cutoff” value on OATP1B1 (OATP1B1 (RSV)) is recorded as “Yes”; on OAT3 it was “No”; at OATP1B3 (OATP1B3 (RSV)), “Yes”. Moreover, the “Cmax,u/IC50 ratio” value is 0.70 at OATP1B1 (OATP1B1 (RSV), Cmax,u used for metabolite M2); under 0.01 on OAT3; 0.17 at OATP1B3 (OATP1B3 (RSV), Cmax,u used for metabolite M2). For the same compound, the “Fraction Inhibited” value is reported as 0.4 on OATP1B1 (OATP1B1 (RSV), Cmax,u/(Cmax,u + IC50) for M2 (Eq. 3)); under 0.01 at OAT3; 0.1 on OATP1B3 (OATP1B3 (RSV), Cmax,u/(Cmax,u + IC50) for M2 (Eq. 3)). Besides, the values for the IC50 at OATP1B1, against OAT3 and against OATP1B3 were 2 ± 0.03 µM, over 300 µM and 8.4 ± 0.2 µM, respectively. The “% inhibition at the highest concentration tested” value on OAT3 (OAT3 (E3S), highest concentration 300 µM) is given as 43%.

`C=CC(=O)N1C[C@H](Nc2ncnc3[nH]ccc23)CC[C@@H]1C` [Ritlecitinib, ritlecitinib]: the “Imax,inlet,u” value in data set [1] (estimated maximal free hepatic portal concentration, ritlecitinib 200 mg) was 31.7 µM. The “Cmax,u” value in data set [1] was 4.7 µM. In addition, the “[I]2” value in data set [1] (oral molar dose of ritlecitinib (200 mg)/250 mL) is 2803 µM. In addition, the “Triggers Drug Interaction Cutoff” value on OATP1B1 (OATP1B1 (RSV)) is “Yes”; on OAT3 it was “Yes”; on OATP1B3 (OATP1B3 (RSV)), “No”. Also, the R-value amounted to 1.10 at OATP1B1 (OATP1B1 (RSV)); 1.1 on OATP1B1 (OATP1B1 (RSV), listed as ritlecitinib); 1.03 on OATP1B3 (OATP1B3 (RSV), 1 + (Imax,inlet,u/IC50), cutoff 1.1 (FDA), 1.04 (EMA)). For the same compound, the “Fraction Inhibited” value on OATP1B1 (OATP1B1 (RSV), Imax,inlet,u/(Imax,inlet,u + IC50) (Eq. 1)) was 0.09; at OATP1B1 (OATP1B1 (RSV), Imax,inlet,u/(Imax,inlet,u + IC50) (Eq. 1), listed as ritlecitinib), at most 0.1; at OAT3, 0.1; on OAT3 (listed as ritlecitinib) it was at most 0.1; at OATP1B3 (OATP1B3 (RSV), Imax,inlet,u/(Imax,inlet,u + IC50) (Eq. 1)) it was 0.03; at OATP1B3 (OATP1B3 (RSV), Imax,inlet,u/(Imax,inlet,u + IC50) (Eq. 1), listed as ritlecitinib), at most 0.1. For the same compound, the values for the IC50 on OATP1B1, at OAT3 and at OATP1B3 were 312 ± 19 µM, 41 ± 3 µM and 934 ± 59 µM, respectively. Besides, the “Cmax,u/IC50 ratio” value on OAT3 came to 0.11.
